Where two headings read alike, the source gives them in different places.
How the values were obtained:
SARS-CoV PLpro = settings: read-out: IC50 against SARS-CoV PLpro; cited from earlier work
SARS-CoV-2 = test system: SARS-CoV-2; parameters: method as in earlier work; settings: viral loads and survival rates; cited from earlier work
SARS-CoV-2 PLpro [1] = target: T1, SARS-CoV-2 PLpro (Severe acute respiratory syndrome coronavirus 2, UniProt P0DTD1); test: biochemical; settings: for Fold increase of IC50 in presence of Tween-20: 0.01% Tween-20 versus none; for IC50: CIY substrate
USP25 = USP25 (Homo sapiens, UniProt Q9UHP3); test: USP25 selectivity FRET assay (CFP-ubiquitin-YFP substrate); assay type: biochemical; settings: for SI (selectivity index): IC50-USP25/IC50-PLpro
Chain of USP25 (Q9UHP3 157-706): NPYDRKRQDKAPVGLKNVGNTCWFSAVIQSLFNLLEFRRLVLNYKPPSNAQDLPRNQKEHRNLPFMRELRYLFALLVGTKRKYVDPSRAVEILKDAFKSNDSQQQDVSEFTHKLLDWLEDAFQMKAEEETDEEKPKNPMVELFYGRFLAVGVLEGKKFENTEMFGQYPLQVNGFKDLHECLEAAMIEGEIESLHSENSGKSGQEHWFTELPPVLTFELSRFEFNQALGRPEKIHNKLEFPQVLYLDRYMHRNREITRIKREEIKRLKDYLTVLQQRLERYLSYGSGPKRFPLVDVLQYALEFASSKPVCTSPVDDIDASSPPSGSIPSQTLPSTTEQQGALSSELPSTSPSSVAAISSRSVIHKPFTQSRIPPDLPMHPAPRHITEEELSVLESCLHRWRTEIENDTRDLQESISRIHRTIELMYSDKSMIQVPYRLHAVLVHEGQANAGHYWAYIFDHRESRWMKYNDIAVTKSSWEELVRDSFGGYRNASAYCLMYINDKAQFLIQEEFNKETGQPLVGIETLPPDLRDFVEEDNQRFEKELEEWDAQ

SARS-CoV-2 WA1 strain [2] = test: Antiviral immunofluorescence assay (IFA) in Vero-E6 cells, WA1 strain; assay type: cell-based; settings: Severe acute respiratory syndrome coronavirus 2, Vero C1008, MOI 0.01, Vero-E6 cells
[3] = test system: SARS-CoV-2 Omicron (B.1.1.529); test: microbe, parasite or virus in culture; assay type: cell-based
[4] = Cellular cytotoxicity (CCK-8 / WST assay); assay type: cell-based; settings: African green monkey, Vero CCL81 cells; 48 h treatment
SARS-CoV-2 PLpro [5] = target: T1, SARS-CoV-2 PLpro; test: Surface plasmon resonance binding to immobilized PLpro; settings: SPR, buffer with Tween-20, 25 °C
SARS-CoV-2 PLpro [6] = target: T1, SARS-CoV-2 PLpro; test: Inhibition mechanism, Lineweaver-Burk plot with peptide-AMC substrate; assay type: biochemical; settings: 40 nM PLpro
SARS-CoV-2 WA1 strain [7] = test: Antiviral plaque reduction assay (PRA) in Vero-E6 cells; settings: read-out: EC50-PRA, MOI 0.01, Vero-E6 cells
[8] = IC50-PLpro-tw, with 0.01% Tween-20

Q: With `CCn1ccc(-c2cc(-c3cnn(C)c3)cc([C@@H](C)NC(=O)c3cc(OCCN(C)C)ccc3C)c2)n1` [Jun12682] as the compound, how does the “Efficacy in mouse model infected with SARS-CoV-2” value (SARS-CoV-2) read?
A: The value was “efficacy in reducing viral loads and enhancing survival rates”.

Q: Which results are given for `CN1CCN(c2ccc([N+](=O)[O-])c3no[n+]([O-])c23)CC1` [NSC207895]?
A: Fold increase of IC50 in presence of Tween-20 (SARS-CoV-2 PLpro [1]): more than 5 fold; IC50 (SARS-CoV-2 PLpro [1]; IC50-PLpro, without Tween-20): 0.9 µM; IC50 (SARS-CoV-2 PLpro [1]; [8]): 5 µM

Q: Which “Fold increase of IC50 in presence of Tween-20” value (SARS-CoV-2 PLpro [1]) does the source give for `COC(=O)C1(C)Cc2cc(OC(C)=O)c(OC(C)=O)cc2N1` (stereo not shown) [NSC341956] here?
A: Its value is greater than 16 fold.

Q: And the IC50 (SARS-CoV-2 PLpro [1]; with 0.01% Tween-20, read-out: IC50-PLpro-tw)?
A: Its IC50 is greater than 200 µM.

Q: And the IC50 (SARS-CoV-2 PLpro [1]; without Tween-20, read-out: IC50-PLpro)?
A: The IC50 was 12.4 µM.

Q: For `COC(=O)c1cc2c(n1S(=O)(=O)c1ccc(C)cc1)C(=O)C(=O)c1[nH]cc(C(=O)OCc3ccccc3)c1-2` [NSC679525], which IC50 (SARS-CoV-2 PLpro [1]; IC50, 5 Min Incubation, 5 min preincubation with the enzyme) is on record?
A: The IC50 was 16.8 µM.

Q: And the IC50 (SARS-CoV-2 PLpro [1]; IC50, 60 Min Incubation, 60 min preincubation with the enzyme)?
A: Its IC50 is 10.2 µM.

Q: And the IC50 (SARS-CoV-2 PLpro [1]; IC50-PLpro, without Tween-20)?
A: The IC50 was 6 µM.

Q: And the IC50 (SARS-CoV-2 PLpro [1]; [8])?
A: The IC50 was 11 µM.

Q: And the IC50 (USP25; CFP-ubiquitin-YFP substrate, without Tween-20)?
A: Its IC50 is 41 µM.

Q: And the “SI (selectivity index)” value (USP25)?
A: Its value is greater than 4.7.

Q: What about the “SI (selectivity index)” value (USP25; listed as 679525) of the same compound?
A: The value was 6.8.

Q: What about the EC50 (SARS-CoV-2 WA1 strain [2]) of the same compound?
A: The EC50 was 2.8 µM.

Q: What about the EC50 ([3]; Severe acute respiratory syndrome coronavirus 2, Vero C1008, read-out: EC50-Omi) of the same compound?
A: The EC50 was 5.42 µM.

Q: And the EC50 ([3]; read-out: EC50-Omi)?
A: Its EC50 is 5.4 µM.

Q: And the CC50 at 48 h [4]?
A: Its CC50 at 48 h is 18.6 µM.

Q: And the Kd (SARS-CoV-2 PLpro [5])?
A: Its Kd is 4.1 µM.

Q: And the “Putative Mode of Action (mechanism of inhibition)” value (SARS-CoV-2 PLpro [6])?
A: The value was “Non-competitive”.

Q: What about the EC50 (SARS-CoV-2 WA1 strain [7]) of the same compound?
A: Its EC50 is 0.4 µM.

— paper PMC11359932 (Viruses, 2024)
